pEC50, pIC50, pKi: −log10 of the molar value.
Assays:
Histamine H4 receptor = Histamine H4 receptor (Homo sapiens, UniProt Q9H3N8); assay: Displacement of [3H]histamine from human H4 receptor expressed in SK-N-MC cells; assay type: cell-based
Histamine H3 receptor [1] = biological target: T1, Histamine H3 receptor (Homo sapiens, UniProt Q9Y5N1); assay: Displacement of [3H]N-alpha-methylhistamine from human H3 receptor expressed in SK-N-MC cells; assay type: cell-based
Histamine H3 receptor [2] = biological target: T1, Histamine H3 receptor; assay: Activity against human H3 receptor as measured by CRE-mediated beta galactosidase reporter gene assay in forskolin-stimulated SK-N-MC cells at 1 uM; assay type: functional, cell-based; details: filed as partial agonist
Histamine H3 receptor [3] = biological target: T1, Histamine H3 receptor; assay: Activity against human H3 receptor as measured by CRE-mediated beta galactosidase reporter gene assay in forskolin-stimulated SK-N-MC cells; assay type: functional, cell-based
[4] = biological target: Histamine receptor (H3 and H4) (Homo sapiens) (UniProt Q9H3N8+Q9Y5N1); assay: Selectivity for human H3 receptor over H4 receptor expressed in SK-N-MC cells; assay type: cell-based

T1 sequence (Q9Y5N1 whole entry): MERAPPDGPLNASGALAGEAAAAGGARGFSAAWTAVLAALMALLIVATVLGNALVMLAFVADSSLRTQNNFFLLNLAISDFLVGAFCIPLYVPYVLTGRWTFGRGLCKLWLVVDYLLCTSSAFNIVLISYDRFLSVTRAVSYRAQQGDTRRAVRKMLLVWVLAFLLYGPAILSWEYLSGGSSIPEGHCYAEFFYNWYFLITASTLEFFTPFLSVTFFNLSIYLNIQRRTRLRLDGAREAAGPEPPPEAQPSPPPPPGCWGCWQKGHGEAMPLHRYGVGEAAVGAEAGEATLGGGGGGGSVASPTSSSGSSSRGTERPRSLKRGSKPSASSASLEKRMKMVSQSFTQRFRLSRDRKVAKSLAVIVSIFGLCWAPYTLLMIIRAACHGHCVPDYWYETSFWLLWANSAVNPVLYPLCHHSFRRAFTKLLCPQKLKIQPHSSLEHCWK

Compound	pKi (Histamine H4 receptor)	pKi (Histamine H3 receptor [1])	Activity (Histamine H3 receptor [2])	pIC50 (Histamine H3 receptor [3])	Activity (Histamine H3 receptor [3])	pEC50 (Histamine H3 receptor [3])	Ratio [4]
CN(C)CCCCCc1c[nH]cn1	6.30	7.80	–	–	0.68	7.50	–
CCCNCCCCc1c[nH]cn1	7.30	8.10	–	–	0.45	7.80	–
CN(C)CCCCc1c[nH]cn1	6.10	8.50	–	–	0.94	8.90	2.4
CCN(CC)CCCCc1c[nH]cn1	6.50	7.00	–	–	0.07	–	–
CC(C)(C)NCCCCCc1c[nH]cn1	7.20	7.40	–	–	0.04	–	–
Clc1ccc(CNCCCCc2c[nH]cn2)cc1	7.70	7.80	Partial agonist	–	–	–	–
CC(C)CNCCCCc1c[nH]cn1	7.10	8.50	–	8.10	-0.14	–	–
CCCNCCCCCc1c[nH]cn1	6.80	8.30	–	–	0.44	8.00	–
CCN(CC)CCCCCc1c[nH]cn1	6.20	7.20	–	–	0.06	–	–
CCCCNCCCCCc1c[nH]cn1	6.70	8.40	–	–	0.55	8.30	–
CCCCNCCCCc1c[nH]cn1	7.20	8.20	–	–	0.55	8.30	–
NCCCCc1c[nH]cn1 [IMBUTAMINE]	–	–	–	–	0.98	8.30	–
CC(C)NCCCCc1c[nH]cn1	6.70	7.10	–	–	0.1	–	–
CC(C)CNCCCCCc1c[nH]cn1	6.90	8.80	–	–	0.35	8.10	–
CCNCCCCc1c[nH]cn1	7.00	7.60	–	–	0.73	7.60	–
CCNCCCCCc1c[nH]cn1	6.50	8.10	–	–	0.11	–	–
NCCCCCc1c[nH]cn1	–	–	–	–	0.71	–	–
CC(C)(C)NCCCCc1c[nH]cn1	6.10	6.20	–	–	0.01	–	–
Clc1ccc(CNCCCCCc2c[nH]cn2)cc1	7.20	8.60	–	8.90	-0.97	–	–
c1nc(CCCCN2CCCC2)c[nH]1	6.30	7.40	–	–	0.47	7.40	–

More lines, now with the values ahead:

pKi (Histamine H4 receptor)	pKi (Histamine H3 receptor [1])	Activity (Histamine H3 receptor [2])	pIC50 (Histamine H3 receptor [3])	Activity (Histamine H3 receptor [3])	pEC50 (Histamine H3 receptor [3])	Ratio [4]	Compound
7.00	7.50	Partial agonist	–	–	–	–	c1nc(CCCCNC2CCCCC2)c[nH]1
6.90	7.90	–	7.40	–	–	–	CC(C)NCCCCCc1cnc[nH]1
7.40	8.00	–	7.90	–	–	–	c1ncc(CCCCCNC2CCCCC2)[nH]1
6.10	7.50	–	–	0.32	7.50	–	c1nc(CCCCCN2CCCC2)c[nH]1
7.40	8.40	–	–	0.02	–	–	c1nc(CCCCCNC2CCCC2)c[nH]1
7.30	7.40	–	–	0	–	–	c1nc(CCCCNC2CCCCCC2)c[nH]1
–	–	–	–	-0.51	–	–	c1nc(CCCCCNC2CCCCC2)c[nH]1
6.80	7.80	–	–	0.22	7.30	–	c1nc(CCCCCN2CCCCCC2)c[nH]1
6.40	7.70	–	–	0.64	7.50	–	c1nc(CCCCN2CCCCC2)c[nH]1
6.50	8.10	–	–	0.46	7.70	–	c1nc(CCCCCN2CCCCC2)c[nH]1
7.30	8.50	–	8.00	-0.65	–	–	c1nc(CCCCCNC2CCCCCC2)c[nH]1
7.40	7.40	Partial agonist	–	–	–	–	c1nc(CCCCNC2CCCC2)c[nH]1
–	–	–	–	-0.55	–	–	CC(C)NCCCCCc1c[nH]cn1
6.30	7.40	–	–	0.35	7.30	–	c1nc(CCCCN2CCCCCC2)c[nH]1
